Results: publication PMC6934184, “Selective DNA-PKcs inhibition extends the therapeutic index of localized radiotherapy and chemotherapy” (The Journal of Clinical Investigation, 2019)

Molecular target: T1, MINK1 (Homo sapiens, UniProt Q8N4C8)
T1 construct: purchased Thermo Fisher Scientific (Life Technologies) SelectScreen
Experiment: SelectScreen Z'LYTE
Format: biochemical
In short: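 SelectScreen broad panel; activity (Z'LYTE, Adapta) plus binding formats. ATP: Km app for CSF1R Z'LYTE; 10 for CAMK1 Adapta. Readout = % per kinase.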

T1 sequence (Q8N4C8 whole entry): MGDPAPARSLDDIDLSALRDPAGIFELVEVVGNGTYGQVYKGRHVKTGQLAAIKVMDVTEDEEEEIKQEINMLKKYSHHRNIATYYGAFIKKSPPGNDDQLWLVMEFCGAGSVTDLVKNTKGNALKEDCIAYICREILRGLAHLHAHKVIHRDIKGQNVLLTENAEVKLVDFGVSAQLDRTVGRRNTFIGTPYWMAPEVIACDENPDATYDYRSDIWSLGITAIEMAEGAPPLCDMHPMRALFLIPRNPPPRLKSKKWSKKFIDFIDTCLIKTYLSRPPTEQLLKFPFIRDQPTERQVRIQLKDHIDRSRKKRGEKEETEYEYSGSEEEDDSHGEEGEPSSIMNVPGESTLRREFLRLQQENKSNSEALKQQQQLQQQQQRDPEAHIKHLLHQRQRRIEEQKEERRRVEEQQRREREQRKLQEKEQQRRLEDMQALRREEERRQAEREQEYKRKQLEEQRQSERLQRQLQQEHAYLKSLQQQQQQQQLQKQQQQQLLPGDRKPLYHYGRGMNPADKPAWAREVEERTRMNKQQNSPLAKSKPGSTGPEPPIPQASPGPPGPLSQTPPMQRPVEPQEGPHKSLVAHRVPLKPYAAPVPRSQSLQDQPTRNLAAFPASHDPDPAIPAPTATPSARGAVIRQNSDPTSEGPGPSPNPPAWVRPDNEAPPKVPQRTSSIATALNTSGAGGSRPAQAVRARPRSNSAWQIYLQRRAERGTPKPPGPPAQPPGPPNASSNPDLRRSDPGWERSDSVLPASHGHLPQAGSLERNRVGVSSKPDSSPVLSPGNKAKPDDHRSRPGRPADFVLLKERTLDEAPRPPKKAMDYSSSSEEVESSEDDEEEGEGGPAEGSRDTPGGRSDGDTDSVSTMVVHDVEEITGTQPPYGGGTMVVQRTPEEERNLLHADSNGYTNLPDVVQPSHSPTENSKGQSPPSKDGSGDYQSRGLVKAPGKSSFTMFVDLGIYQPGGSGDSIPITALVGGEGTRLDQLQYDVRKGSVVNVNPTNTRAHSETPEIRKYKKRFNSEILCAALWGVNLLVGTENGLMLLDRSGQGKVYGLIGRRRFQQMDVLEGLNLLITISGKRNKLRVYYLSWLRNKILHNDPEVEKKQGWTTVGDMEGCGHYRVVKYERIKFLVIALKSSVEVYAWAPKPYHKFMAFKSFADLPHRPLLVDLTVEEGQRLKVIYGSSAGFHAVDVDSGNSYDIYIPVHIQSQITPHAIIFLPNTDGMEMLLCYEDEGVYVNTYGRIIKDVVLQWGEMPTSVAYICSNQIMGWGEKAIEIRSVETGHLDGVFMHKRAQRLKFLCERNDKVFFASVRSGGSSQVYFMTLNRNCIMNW

CN(C(=O)CN1CCOCC1)c1ccc2sc3c(-c4cccc5c(=O)cc(N6CC7CCC(C6)O7)oc45)cccc3c2c1 [NU5455]
inhibition at 1 µM: 4.6%
